Laboratory results as given in publication PMC12738692, “Identification, characterization, and structure-activity relationship of the ASIC3-selective peptide WRPRFa” (Communications Chemistry, 2025).
Where no end group is shown, it is not given here.

Experiments:
[1] = target: T1, human ASIC3 (Homo sapiens, UniProt Q9UHC3); assay: Time-dependence of WRPRFa wash off from activated (pH 6.3) and resting (pH 8.0) ASIC3; format: cell-based
T1 construct: CHO cells stably expressing human ASIC3 (NM_004769.1)
T1 sequence (Q9UHC3 1-531): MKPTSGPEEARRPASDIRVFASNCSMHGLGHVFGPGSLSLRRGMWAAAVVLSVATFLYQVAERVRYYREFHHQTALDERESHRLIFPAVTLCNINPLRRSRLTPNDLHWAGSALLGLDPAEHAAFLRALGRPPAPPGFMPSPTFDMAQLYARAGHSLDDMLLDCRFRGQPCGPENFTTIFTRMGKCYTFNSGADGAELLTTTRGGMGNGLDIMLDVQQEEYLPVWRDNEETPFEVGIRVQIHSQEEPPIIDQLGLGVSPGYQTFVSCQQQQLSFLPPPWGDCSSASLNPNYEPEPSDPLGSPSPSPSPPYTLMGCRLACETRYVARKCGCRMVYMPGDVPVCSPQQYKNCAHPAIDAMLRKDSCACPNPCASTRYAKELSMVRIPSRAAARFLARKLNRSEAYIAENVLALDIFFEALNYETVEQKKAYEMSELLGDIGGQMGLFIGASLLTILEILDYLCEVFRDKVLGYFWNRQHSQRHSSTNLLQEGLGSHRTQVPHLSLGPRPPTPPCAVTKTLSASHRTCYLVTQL
Method: Next, we assessed the rate at which WRPRFa leaves the channel from the activated and closed states. We preincubated cells with WRPRFa to load channels with peptide, then used two different protocols to remove the peptide. For dissociation from the activated state, we preincubated cells at pH 8.0 with 30 µM WRPRFa, then continuously applied pH 6.3 without WRPRFa to activate the channels while washing off bound peptide. HEK cells poorly tolerate long periods of acid application and sodium influx, so acid application was kept to 1 min. […] The first decrease of current likely arose from desensitization of unbound channels, and possibly also from an initial dissociation of peptide from activated channels, which subsequently desensitized.
For dissociation from resting state channels, we continuously applied pH 8.0 without peptide to remove WRPRFa. Every 20 s the cells were given a 5 s application of pH 6.3 to quantify the remaining sustained current. A 5 s activation was used to minimize wash-off from the activated state, which was deemed negligible based on the observed off-rate under the pH 6.3 condition. The sustained current was about 95% gone after 3 min, with a time constant of 43.5 s (95% CI: 39.0–48.4 s) (Fig. 3D and E). […]

[2] = target: T2, ASIC131 (Homo sapiens, UniProt Q9UHC3); assay: MPC WRPRFa concentration-response on concatemer ASIC131; format: cell-based; details: read-out: lower limit EC50
T2 construct: placing human ASIC1a and human ASIC3 ORFs in tandem; expressed in transfected cells; host or cells: WT CHO cells (85050302, Sigma), transient transfection
T2 sequence (Q9UHC3 1-531): T1 sequence (Q9UHC3 1-531)
Method: CHO and HEK cells were tested in the whole-cell configuration on MPC platforms using an Axopatch 200B amplifier (Axon Instruments, San Jose, CA) and a Digidata 1322A or Digidata 1440A digitizer (Axon) using pClamp 9.2 or 10.7 (Molecular Devices, San Jose, CA), respectively. When testing transfected cells, red fluorescence from the cleaved mCherry reporter was used to identify cells expressing ASIC3, ASIC131, or ASIC313. For cells expressing transfected ASIC1a or ASIC2a, the green signal from the cleaved eGFP reporter was used. All electrophysiology data were analyzed with Clampfit 11.1 (Molecular Devices).
For peptide concentration-response curves, Bottom was set to 0 and Top was constrained to ≤ 1 for peptides that approached plateau phase or where I3s/Ipk reached 1. […] For activation- or desensitization-pH curves, Bottom was set to 0 and Top constrained to 1.

With WRPRF-NH2 [WRPRFa] the “current decrease within first 10 s at pH 6.3” value ([1]; activated state wash off) was “about 22%”, the “sustained current gone after 3 min” value ([1]; pH 8.0 wash off) was “about 95%” and the EC50 [2] was at least 32.4 µM.
